{"source": "patent US7183267B2", "about": "“β-lactamase inhibitors and methods of use thereof” (priority 2003, dated 2007)", "type_in_all_cases": "cell-based", "key": {"[1]": {"tested_on": "methicillin resistant S. aureus ATCC 33591 (MRSA-ATCC)", "assay": "MIC assay, broth microdilution, MRSA-ATCC", "settings": "Staphylococcus aureus, 24 h", "experimental": "(1) methicillin resistant S. aureus ATCC 33591 (MRSA-ATCC). This strain was obtained from American Type Culture Collection (ATCC), Manassas, Md.;\n(§1) The strains were processed according to procedures recommended by ATCC, or procedures that are routinely used. Single colonies of each organism were picked for purification to generate pure working cultures. Prior to each experiment each strain was subcultured on a fresh Mueller-Hinton agar plate (MHA).\n(§2) Inocula for the MIC assays were prepared by transferring a tiny portion of one colony from a MHA plate to 2 ml of Mueller-Hinton broth (MHB) such that the estimated cell density was about 10^7 colony forming unit (CFU)/ml. This cell suspension was then further diluted 10-fold (to 10^6 CFU/ml) by transferring the 2 ml cell suspension to 18 ml of MHB. Addition of 50 μl of this dilute cell suspension to 50 μl of growth medium yielded the desired cell density, namely about 5×10^4 CFU/well, or 5×10^5 CFU/ml.\n(§3) The MIC value of oxacillin was determined using the broth microdilution procedure recommended by the National Committee of Clinical Laboratory Standards (NCCLS, 2000).\n(§4) The MIC experiments were performed in duplicate in 96-well microtiter plates using MHB. A stock solution of 2.6 mg/0.5 ml was prepared in dimethylsulfoxide (DMSO). A total of 8 two-fold serial dilutions were made with DMSO. Initial oxacillin doses used were (μg/ml): 64, 32, 16, 8, 4, 2, 1, and 0.5. Doses were adjusted in the confirmatory experiment, if needed, in order to establish an actual MIC value.\n(§5) To each well of a 96 well microtiter plate was added 47.5 μl of MHB. A volume of 2.5 μl of each dilution of oxacillin was then transferred to appropriate wells containing the medium. All wells, except the sterility control wells, were then inoculated with 50 μl of a diluted cell suspension to give a final volume of 100 μl and a final cell density of 5×10^4 CFU/well. The volume in the sterility control wells was adjusted to 100 μl with MHB. A sterile pipette tip was used to mix the contents of each well (one tip was used going from the low to the high concentration in the same column). The microtiter plates were covered with the lids and were placed in large Stratagene Big Blue plates (Cat. # 400041). Four large kimwipes moistened with tap water were placed near the edges of the Stratagene plates to prevent evaporation of the medium. The microtiter plates were incubated for at least 24 hours at 35° C. The plates were then evaluated for growth in each well. Controls included: medium sterility and negative control (medium and bacteria only).\n(§6) The procedure used to determine the antimicrobial activity of the compounds of the present invention was identical to the broth microdilution procedure described above with the exception of the preparation of the stock solutions. Stock solution at concentration of 40.96 mg/0.5 ml was prepared in DMSO for each of the compounds. A total of 8 two-fold dilutions were then made in DMSO. A volume of 2.5 μl of each dilution was delivered to appropriate wells. The initial doses used were (μg/ml): 512, 256, 128, 64, 32, 16, 8, and 4.\n(§7) A numerical code was used to evaluate the extent of growth as indicated below. • 0: absence of growth • 1: barely visible (faint) growth • 2: fair growth but less than the negative solvent control • 3: growth is equivalent to the negative solvent control.\n(§8) The lowest dose at which no visible growth is observed was determined to be the MIC value.\n(§9) MIC assays were performed with oxacillin and the four compounds. Each of the compounds was tested at the following 8 doses (μg/ml): 512, 256, 128, 64, 32, 16, 8, and 4. Oxacillin was tested at the following 8 doses (μg/ml): 64, 32, 16, 8, 4, 2, 1, and 0.5."}, "[2]": {"tested_on": "methicillin resistant S. aureus from Stanford University Hospital (MRSA-SU)", "assay": "MIC assay, broth microdilution, MRSA-SU", "settings": "Staphylococcus aureus, MRSA, 24 h", "from_the_text": "(2) methicillin resistant S. aureus from Stanford University Hospital Clinical Microbiology/Virology Laboratory (MRSA-SU). […] Such Staphylococci are also resistant to all penicillins, and all cephalosporins, in addition to all β-lactamase inhibitor combinations (including ampicillin/sulbactarn, amoxicillin/clavulanic acid, piperacillin/tazobactam), imipenem, and meropenem; and\nas §1, §2, §3, §4, §5, §6, §7, §8, §9"}, "[3]": {"tested_on": "methicillin resistant S. aureus from Stanford University Hospital (MRSA-SU)", "assay": "Matrix system: oxacillin plus β-lactamase inhibitor, MRSA-SU", "experimental": "as §5, §7, §8\nThe effect of the four compounds of the present invention on oxacillin resistance of the MRSA strains was determined using a matrix system. The β-lactamase inhibitors were tested at 5 doses against up to eleven concentrations of oxacillin. […] A 96-well microtiter plate was used for the matrix system. The procedure was identical to that described above for the MIC determination, with the exception that both oxacillin and one each of the β-lactamase inhibitors was added, 2.5 μl each, to the wells prior to addition of the test organisms.\nMatrix Study:Oxacillin and Compound FL201 with MRSA-SU\nMatrix Study: Oxacillin and Compound FL202 with MRSA-SU"}}}
{"smiles": "O=C(OCc1ccccc1)c1cc(B(O)O)cc([N+](=O)[O-])c1", "note": "[Compound F1201]", "values": [{"measurement": "MIC", "setting": "[1]", "value": 32, "unit": "µg/mL"}, {"measurement": "MIC", "setting": "[2]", "value": 32, "unit": "µg/mL"}, {"measurement": "MIC (oxacillin)", "setting": "[3]; Table 17, in presence of F1201 2 μg/ml", "value": 64, "unit": "µg/mL"}, {"measurement": "MIC (oxacillin)", "setting": "[3]; Table 17, in presence of F1201 4 μg/ml", "value": 16, "unit": "µg/mL"}, {"measurement": "MIC (oxacillin)", "setting": "[3]; Table 17, in presence of F1201 8 μg/ml", "value": 0.5, "unit": "µg/mL"}, {"measurement": "MIC (oxacillin)", "setting": "[3]; Table 17, in presence of F1201 16 μg/ml", "value": "<0.064", "unit": "µg/mL"}, {"measurement": "growth score", "setting": "[3]; Table 17, oxacillin 0, F1201 2 μg/ml", "value": 3}, {"measurement": "growth score", "setting": "[3]; Table 17, oxacillin 0, F1201 4 μg/ml", "value": 2}, {"measurement": "growth score", "setting": "[3]; Table 17, oxacillin 0, F1201 8 μg/ml", "value": 2}, {"measurement": "growth score", "setting": "[3]; Table 17, oxacillin 0, F1201 16 μg/ml", "value": 1}, {"measurement": "growth score", "setting": "[3]; Table 17, oxacillin 0, F1201 32 μg/ml", "value": 0}, {"measurement": "growth score", "setting": "[3]; Table 17, oxacillin 0.064 μg/ml + F1201 2 μg/ml", "value": 2}, {"measurement": "growth score", "setting": "[3]; Table 17, oxacillin 0.064 μg/ml + F1201 4 μg/ml", "value": 2}, {"measurement": "growth score", "setting": "[3]; Table 17, oxacillin 0.064 μg/ml + F1201 8 μg/ml", "value": 1}, {"measurement": "growth score", "setting": "[3]; Table 17, oxacillin 0.064 μg/ml + F1201 16 μg/ml", "value": 0}, {"measurement": "growth score", "setting": "[3]; Table 17, oxacillin 0.064 μg/ml + F1201 32 μg/ml", "value": 0}, {"measurement": "growth score", "setting": "[3]; Table 17, oxacillin 0.125 μg/ml + F1201 2 μg/ml", "value": 2}, {"measurement": "growth score", "setting": "[3]; Table 17, oxacillin 0.125 μg/ml + F1201 4 μg/ml", "value": 2}, {"measurement": "growth score", "setting": "[3]; Table 17, oxacillin 0.125 μg/ml + F1201 8 μg/ml", "value": 1}, {"measurement": "growth score", "setting": "[3]; Table 17, oxacillin 0.125 μg/ml + F1201 16 μg/ml", "value": 0}, {"measurement": "growth score", "setting": "[3]; Table 17, oxacillin 0.125 μg/ml + F1201 32 μg/ml", "value": 0}, {"measurement": "growth score", "setting": "[3]; Table 17, oxacillin 0.25 μg/ml + F1201 2 μg/ml", "value": 2}, {"measurement": "growth score", "setting": "[3]; Table 17, oxacillin 0.25 μg/ml + F1201 4 μg/ml", "value": 1}, {"measurement": "growth score", "setting": "[3]; Table 17, oxacillin 0.25 μg/ml + F1201 8 μg/ml", "value": 1}, {"measurement": "growth score", "setting": "[3]; Table 17, oxacillin 0.25 μg/ml + F1201 16 μg/ml", "value": 0}, {"measurement": "growth score", "setting": "[3]; Table 17, oxacillin 0.25 μg/ml + F1201 32 μg/ml", "value": 0}, {"measurement": "growth score", "setting": "[3]; Table 17, oxacillin 0.5 μg/ml + F1201 2 μg/ml", "value": 2}, {"measurement": "growth score", "setting": "[3]; Table 17, oxacillin 0.5 μg/ml + F1201 4 μg/ml", "value": 1}, {"measurement": "growth score", "setting": "[3]; Table 17, oxacillin 0.5 μg/ml + F1201 8 μg/ml", "value": 0}, {"measurement": "growth score", "setting": "[3]; Table 17, oxacillin 0.5 μg/ml + F1201 16 μg/ml", "value": 0}, {"measurement": "growth score", "setting": "[3]; Table 17, oxacillin 0.5 μg/ml + F1201 32 μg/ml", "value": 0}, {"measurement": "growth score", "setting": "[3]; Table 17, oxacillin 1 μg/ml + F1201 2 μg/ml", "value": 1}, {"measurement": "growth score", "setting": "[3]; Table 17, oxacillin 1 μg/ml + F1201 4 μg/ml", "value": 1}, {"measurement": "growth score", "setting": "[3]; Table 17, oxacillin 1 μg/ml + F1201 8 μg/ml", "value": 0}, {"measurement": "growth score", "setting": "[3]; Table 17, oxacillin 1 μg/ml + F1201 16 μg/ml", "value": 0}, {"measurement": "growth score", "setting": "[3]; Table 17, oxacillin 1 μg/ml + F1201 32 μg/ml", "value": 0}, {"measurement": "growth score", "setting": "[3]; Table 17, oxacillin 2 μg/ml + F1201 2 μg/ml", "value": 1}, {"measurement": "growth score", "setting": "[3]; Table 17, oxacillin 2 μg/ml + F1201 4 μg/ml", "value": 1}, {"measurement": "growth score", "setting": "[3]; Table 17, oxacillin 2 μg/ml + F1201 8 μg/ml", "value": 0}, {"measurement": "growth score", "setting": "[3]; Table 17, oxacillin 2 μg/ml + F1201 16 μg/ml", "value": 0}, {"measurement": "growth score", "setting": "[3]; Table 17, oxacillin 2 μg/ml + F1201 32 μg/ml", "value": 0}, {"measurement": "growth score", "setting": "[3]; Table 17, oxacillin 4 μg/ml + F1201 2 μg/ml", "value": 1}, {"measurement": "growth score", "setting": "[3]; Table 17, oxacillin 4 μg/ml + F1201 4 μg/ml", "value": 1}, {"measurement": "growth score", "setting": "[3]; Table 17, oxacillin 4 μg/ml + F1201 8 μg/ml", "value": 0}, {"measurement": "growth score", "setting": "[3]; Table 17, oxacillin 4 μg/ml + F1201 16 μg/ml", "value": 0}, {"measurement": "growth score", "setting": "[3]; Table 17, oxacillin 4 μg/ml + F1201 32 μg/ml", "value": 0}, {"measurement": "growth score", "setting": "[3]; Table 17, oxacillin 16 μg/ml + F1201 2 μg/ml", "value": 1}, {"measurement": "growth score", "setting": "[3]; Table 17, oxacillin 16 μg/ml + F1201 4 μg/ml", "value": 0}, {"measurement": "growth score", "setting": "[3]; Table 17, oxacillin 16 μg/ml + F1201 8 μg/ml", "value": 0}, {"measurement": "growth score", "setting": "[3]; Table 17, oxacillin 16 μg/ml + F1201 16 μg/ml", "value": 0}, {"measurement": "growth score", "setting": "[3]; Table 17, oxacillin 16 μg/ml + F1201 32 μg/ml", "value": 0}, {"measurement": "growth score", "setting": "[3]; Table 17, oxacillin 64 μg/ml + F1201 2 μg/ml", "value": 0}, {"measurement": "growth score", "setting": "[3]; Table 17, oxacillin 64 μg/ml + F1201 4 μg/ml", "value": 0}, {"measurement": "growth score", "setting": "[3]; Table 17, oxacillin 64 μg/ml + F1201 8 μg/ml", "value": 0}, {"measurement": "growth score", "setting": "[3]; Table 17, oxacillin 64 μg/ml + F1201 16 μg/ml", "value": 0}, {"measurement": "growth score", "setting": "[3]; Table 17, oxacillin 64 μg/ml + F1201 32 μg/ml", "value": 0}, {"measurement": "growth score", "setting": "[3]; Table 17, oxacillin 128 μg/ml + F1201 2 μg/ml", "value": 0}, {"measurement": "growth score", "setting": "[3]; Table 17, oxacillin 128 μg/ml + F1201 4 μg/ml", "value": 0}, {"measurement": "growth score", "setting": "[3]; Table 17, oxacillin 128 μg/ml + F1201 8 μg/ml", "value": 0}, {"measurement": "growth score", "setting": "[3]; Table 17, oxacillin 128 μg/ml + F1201 16 μg/ml", "value": 0}, {"measurement": "growth score", "setting": "[3]; Table 17, oxacillin 128 μg/ml + F1201 32 μg/ml", "value": 0}, {"measurement": "growth score", "setting": "[3]; Table 17, oxacillin 256 μg/ml + F1201 2 μg/ml", "value": 0}, {"measurement": "growth score", "setting": "[3]; Table 17, oxacillin 256 μg/ml + F1201 4 μg/ml", "value": 0}, {"measurement": "growth score", "setting": "[3]; Table 17, oxacillin 256 μg/ml + F1201 8 μg/ml", "value": 0}, {"measurement": "growth score", "setting": "[3]; Table 17, oxacillin 256 μg/ml + F1201 16 μg/ml", "value": 0}, {"measurement": "growth score", "setting": "[3]; Table 17, oxacillin 256 μg/ml + F1201 32 μg/ml", "value": 0}]}
